Test results taken from ChEMBL document CHEMBL5620355, “Discovery of intracellular self-assembly protein degraders driven by tumor-specific activatable bioorthogonal reaction” (Eur J Med Chem, 2023).
Activity calls are given as the source filed them. No cut-off for these calls is given here.

Key:
[1] = tested on: U-87 MG; assay: Induction of cell cycle arrest at S phase in human U87 cells incubated for 48 hrs in presence of (2S,4R)-1-((S)-2-(5-azidopentanamido)-3,3-dimethylbutanoyl)-4-hydroxy-N-(4-(4-methylthiazol-5-yl)benzyl)pyrrolidine-2-carboxamide by PI staining based flow cytometry; assay type: functional; settings: U-87MG ATCC, dose 0.1-1 µM
[2] = tested on: U-87 MG; assay: (§1) Induction of apoptosis in human U87 cells assessed as necrotic cells at 20 uM incubated for 48 hrs in presence of (2S,4R)-1-((S)-2-(5-azidopentanamido)-3,3-dimethylbutanoyl)-4-hydroxy-N-(4-(4-methylthiazol-5-yl)benzyl)pyrrolidine-2-carboxamide by Annexin V-FLTC/PI staining based flow cytometry (reference value: 0.60 %); assay type: functional, U-87MG ATCC
[3] = target: Serine/threonine-protein kinase B-raf (Homo sapiens) (UniProt P15056); assay: Induction of BRAF degradation in human U87 cells upto 10 uM incubated for 48 hrs by Western blot analysis; assay type: cell-based
Serine/threonine-protein kinase B-raf (Homo sapiens), sequence (P15056 whole entry): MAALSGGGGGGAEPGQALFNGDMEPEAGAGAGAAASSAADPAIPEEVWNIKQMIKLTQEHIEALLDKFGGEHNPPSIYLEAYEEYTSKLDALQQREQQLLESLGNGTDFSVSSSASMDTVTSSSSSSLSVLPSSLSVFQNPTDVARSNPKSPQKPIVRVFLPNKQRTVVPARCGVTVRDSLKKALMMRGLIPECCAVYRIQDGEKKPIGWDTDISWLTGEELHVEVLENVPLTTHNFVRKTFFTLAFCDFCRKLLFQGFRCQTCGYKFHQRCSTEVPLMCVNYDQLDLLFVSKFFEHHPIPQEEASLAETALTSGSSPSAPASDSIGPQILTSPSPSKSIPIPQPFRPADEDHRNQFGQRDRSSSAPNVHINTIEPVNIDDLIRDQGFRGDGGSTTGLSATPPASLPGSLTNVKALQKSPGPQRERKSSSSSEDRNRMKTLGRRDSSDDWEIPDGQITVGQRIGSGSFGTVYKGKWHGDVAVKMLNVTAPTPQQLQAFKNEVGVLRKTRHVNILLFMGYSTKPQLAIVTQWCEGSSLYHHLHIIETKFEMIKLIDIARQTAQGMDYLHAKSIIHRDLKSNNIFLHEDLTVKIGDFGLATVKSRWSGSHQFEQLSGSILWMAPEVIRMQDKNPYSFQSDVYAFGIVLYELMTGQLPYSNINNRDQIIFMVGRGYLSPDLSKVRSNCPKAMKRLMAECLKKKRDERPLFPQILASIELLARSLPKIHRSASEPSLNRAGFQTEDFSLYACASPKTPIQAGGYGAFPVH

[4] = tested on: HEK293; assay: Cytotoxicity against HEK293 cells at low concentration incubated for 48 hrs in presence of 4-azido-N-(2-(2,6-dioxopiperidin-3-yl)-1,3-dioxoisoindolin-4-yl)butanamide by MTT assay; assay type: toxicity, cell-based; settings: human, hek293, 48 h
[5] = tested on: U-87 MG; assay: as §1, with “1” for “20”; assay type: functional, U-87MG ATCC
[6] = target: Platelet-derived growth factor receptor beta (Homo sapiens) (UniProt P09619); assay: Induction of PDGFR-beta degradation in human U87 cells upto 10 uM incubated for 48 hrs by Western blot analysis; assay type: cell-based
Platelet-derived growth factor receptor beta (Homo sapiens), sequence (P09619 whole entry): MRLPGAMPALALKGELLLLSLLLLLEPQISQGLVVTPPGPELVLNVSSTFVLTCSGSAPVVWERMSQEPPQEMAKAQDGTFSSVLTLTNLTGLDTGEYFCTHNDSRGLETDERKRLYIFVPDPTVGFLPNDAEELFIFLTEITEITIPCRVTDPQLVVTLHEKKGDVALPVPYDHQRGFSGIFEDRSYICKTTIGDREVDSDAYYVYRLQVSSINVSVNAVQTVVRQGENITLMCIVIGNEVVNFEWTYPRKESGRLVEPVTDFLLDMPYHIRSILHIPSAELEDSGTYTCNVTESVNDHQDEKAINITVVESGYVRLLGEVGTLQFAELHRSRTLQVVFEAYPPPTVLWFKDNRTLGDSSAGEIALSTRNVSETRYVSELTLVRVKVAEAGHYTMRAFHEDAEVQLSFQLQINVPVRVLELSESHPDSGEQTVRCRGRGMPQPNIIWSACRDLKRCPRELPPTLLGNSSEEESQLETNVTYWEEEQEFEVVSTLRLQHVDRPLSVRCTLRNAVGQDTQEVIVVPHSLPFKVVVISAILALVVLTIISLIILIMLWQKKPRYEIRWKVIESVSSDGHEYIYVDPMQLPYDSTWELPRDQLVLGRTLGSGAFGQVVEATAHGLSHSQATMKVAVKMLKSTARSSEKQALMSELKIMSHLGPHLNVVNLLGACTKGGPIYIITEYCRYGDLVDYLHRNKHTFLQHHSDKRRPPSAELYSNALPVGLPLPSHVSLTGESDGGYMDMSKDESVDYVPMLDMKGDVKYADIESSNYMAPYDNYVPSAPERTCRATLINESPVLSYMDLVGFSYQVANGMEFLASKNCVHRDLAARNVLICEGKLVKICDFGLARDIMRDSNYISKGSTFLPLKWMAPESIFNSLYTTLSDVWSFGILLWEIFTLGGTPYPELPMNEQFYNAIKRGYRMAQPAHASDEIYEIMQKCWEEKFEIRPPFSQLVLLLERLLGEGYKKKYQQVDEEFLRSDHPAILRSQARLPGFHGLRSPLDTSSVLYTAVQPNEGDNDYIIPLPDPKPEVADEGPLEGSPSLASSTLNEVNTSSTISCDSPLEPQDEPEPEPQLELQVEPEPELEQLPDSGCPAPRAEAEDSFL

[7] = tested on: U-87 MG; assay: Antiproliferative activity against human U87 cells incubated for 48 hrs in presence of 4-azido-N-(2-(2,6-dioxopiperidin-3-yl)-1,3-dioxoisoindolin-4-yl)butanamide by MTT assay; assay type: functional, cell-based, U-87MG ATCC
[8] = tested on: HEK293; assay: Cytotoxicity against HEK293 cells at high concentration incubated for 48 hrs in presence of (2S,4R)-1-((S)-2-(5-azidopentanamido)-3,3-dimethylbutanoyl)-4-hydroxy-N-(4-(4-methylthiazol-5-yl)benzyl)pyrrolidine-2-carboxamide by MTT assay; assay type: toxicity, cell-based; settings: human, hek293, 48 h
[9] = tested on: HEK293; assay: Cytotoxicity against HEK293 cells at high concentration incubated for 48 hrs in presence of 4-azido-N-(2-(2,6-dioxopiperidin-3-yl)-1,3-dioxoisoindolin-4-yl)butanamide by MTT assay; assay type: toxicity, cell-based; settings: human, hek293, 48 h
[10] = tested on: A549; assay: Antiproliferative activity against human A549 cells incubated for 48 hrs in presence of (2S,4R)-1-((S)-2-(5-azidopentanamido)-3,3-dimethylbutanoyl)-4-hydroxy-N-(4-(4-methylthiazol-5-yl)benzyl)pyrrolidine-2-carboxamide by MTT assay; assay type: functional, cell-based; settings: A549, 48 h
[11] = tested on: A549; assay: Antiproliferative activity against human A549 cells incubated for 48 hrs in presence of 4-azido-N-(2-(2,6-dioxopiperidin-3-yl)-1,3-dioxoisoindolin-4-yl)butanamide by MTT assay; assay type: functional, cell-based; settings: A549, 48 h
[12] = tested on: HEK293; assay: Cytotoxicity against HEK293 cells at low concentration incubated for 48 hrs in presence of (2S,4R)-1-((S)-2-(5-azidopentanamido)-3,3-dimethylbutanoyl)-4-hydroxy-N-(4-(4-methylthiazol-5-yl)benzyl)pyrrolidine-2-carboxamide by MTT assay; assay type: toxicity, cell-based; settings: human, hek293, 48 h
[13] = target: T1, Ephrin type-B receptor 4 (Homo sapiens) (UniProt P54760); assay: Induction of EphB4 degradation in human U87 cells at 10 uM incubated for 48 hrs in presence of 4-azido-N-(2-(2,6-dioxopiperidin-3-yl)-1,3-dioxoisoindolin-4-yl)butanamide by Western blot analysis; assay type: cell-based
T1 sequence (whole entry): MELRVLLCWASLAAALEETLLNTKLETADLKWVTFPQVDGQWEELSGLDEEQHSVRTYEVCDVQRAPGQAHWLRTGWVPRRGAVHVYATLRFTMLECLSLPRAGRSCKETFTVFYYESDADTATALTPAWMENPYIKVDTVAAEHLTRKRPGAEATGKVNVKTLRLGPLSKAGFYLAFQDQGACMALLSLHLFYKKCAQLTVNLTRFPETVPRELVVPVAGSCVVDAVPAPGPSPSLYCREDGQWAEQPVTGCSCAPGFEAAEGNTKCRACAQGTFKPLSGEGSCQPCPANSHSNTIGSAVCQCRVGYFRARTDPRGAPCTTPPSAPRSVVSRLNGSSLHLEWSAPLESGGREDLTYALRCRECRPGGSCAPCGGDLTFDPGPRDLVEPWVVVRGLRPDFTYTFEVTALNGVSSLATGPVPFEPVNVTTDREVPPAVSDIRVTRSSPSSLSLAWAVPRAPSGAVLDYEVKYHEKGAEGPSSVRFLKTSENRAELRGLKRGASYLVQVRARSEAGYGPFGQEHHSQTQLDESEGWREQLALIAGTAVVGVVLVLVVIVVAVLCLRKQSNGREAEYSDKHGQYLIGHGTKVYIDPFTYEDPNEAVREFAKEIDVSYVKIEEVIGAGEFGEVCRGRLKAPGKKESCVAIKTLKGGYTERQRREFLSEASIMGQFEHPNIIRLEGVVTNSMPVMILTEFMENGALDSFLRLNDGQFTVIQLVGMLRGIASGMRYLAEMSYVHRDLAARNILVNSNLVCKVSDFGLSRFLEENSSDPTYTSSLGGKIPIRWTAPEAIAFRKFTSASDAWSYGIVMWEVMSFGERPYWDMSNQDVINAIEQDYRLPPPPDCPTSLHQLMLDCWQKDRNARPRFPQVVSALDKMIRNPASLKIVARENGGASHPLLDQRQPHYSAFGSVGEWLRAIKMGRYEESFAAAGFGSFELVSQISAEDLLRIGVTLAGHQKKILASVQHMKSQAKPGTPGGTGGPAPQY

[14] = tested on: U-87 MG; assay: Induction of apoptosis in human U87 cells assessed as viable cells at 0.1 uM incubated for 48 hrs in presence of 4-(4-(3-(4-chloro-3-(trifluoromethyl)phenyl)ureido)phenoxy)-N-(prop-2-yn-1-yl)picolinamide by Annexin V-FLTC/PI staining based flow cytometry (reference value: 86.74 %); assay type: functional, U-87MG ATCC; settings: read-out: Activity
[15] = tested on: U-87 MG; assay: Induction of apoptosis in human U87 cells assessed as necrotic cells at 10 uM incubated for 48 hrs in presence of 4-(4-(3-(4-chloro-3-(trifluoromethyl)phenyl)ureido)phenoxy)-N-(prop-2-yn-1-yl)picolinamide by Annexin V-FLTC/PI staining based flow cytometry (reference value: 0.60 %); assay type: functional, U-87MG ATCC
[16] = Stability of compound in DMEM medium by HPLC analysis; assay type: physicochemical
[17] = Stability of compound in H2O by HPLC analysis; assay type: physicochemical
[18] = tested on: U-87 MG; assay: Induction of apoptosis in human U87 cells assessed as late apoptotic cells at 20 uM incubated for 48 hrs in presence of 4-(4-(3-(4-chloro-3-(trifluoromethyl)phenyl)ureido)phenoxy)-N-(prop-2-yn-1-yl)picolinamide by Annexin V-FLTC/PI staining based flow cytometry (reference value: 3.71 %); assay type: functional, U-87MG ATCC
[19] = tested on: U-87 MG; assay: Induction of apoptosis in human U87 cells assessed as early apoptotic cells at 0.1 uM incubated for 48 hrs in presence of 4-(4-(3-(4-chloro-3-(trifluoromethyl)phenyl)ureido)phenoxy)-N-(prop-2-yn-1-yl)picolinamide by Annexin V-FLTC/PI staining based flow cytometry (reference value: 8.95 %); assay type: functional, U-87MG ATCC
[20] = tested on: HEK293; assay: Cytotoxicity against HEK293 cells at high concentration incubated for 48 hrs in presence of 4-(4-(3-(4-chloro-3-(trifluoromethyl)phenyl)ureido)phenoxy)-N-(prop-2-yn-1-yl)picolinamide by MTT assay; assay type: toxicity, cell-based; settings: human, hek293, 48 h

SMILES	Activity [1]	Activity [2]	Activity [3]	Activity [4]	Activity [5]	Activity [6]	IC50 [7]	Activity [8]	Activity [9]	IC50 [10]	IC50 [11]	Activity [12]	Activity [13]	viability at 0.1 µM [14]	Activity [15]	Stability [16]	Stability [17]	Activity [18]	Activity [19]	Activity [20]
C#CCNC(=O)c1cc(Oc2ccc(NC(=O)Nc3ccc(Cl)c(C(F)(F)F)c3)cc2)ccn1	Dose-Dependent Effect	6.36%	inactive	Non-Toxic	1.26%	inactive	5680 nM	Toxic	Toxic	1060 nM	1160 nM	Non-Toxic	Active	–	–	–	–	–	–	–
[N-]=[N+]=NCCCC(=O)Nc1cccc2c1C(=O)N(C1CCC(=O)NC1=O)C2=O (stereo not given)	–	–	–	–	–	–	–	–	–	–	–	–	–	85.3%	25.6%	Unstable	Stable	79.04%	10.27%	Toxic
